Measured values published in US9688651B2, “Geranyl geranyl acetone analogs and uses thereof” (NYKEN Holding B.V., priority 2012, dated 2017).

How the values were obtained:
[1] = test system: glucose-responsive protein 78 (Grp78); assay: Grp78 mRNA (qPCR, HSF1-independent) in HL-1 cardiomyocytes; format: cell-based, mouse; set-up: key to HSP boosting HL-1 cardiomyocytes mRNA (qPCR) Grp78 Not HSF1: 0 = no induction HSP levels; + = 2-10-fold induction; ++ = 10-30-fold induction; +++ = > 30-fold induction; settings: for upregulation of Grp78 mRNA: HL-1, mild heat shock, 10 μM, 6 hours; for HSP boosting HL-1 cardiomyocytes mRNA (qPCR) Grp78 Not HSF1: mild heat shock, then compound 10 μM for 6 hours
Description: (§1) HL-1 cardiomyocytes were subjected to a mild heat shock of 44° C. for 10 minutes. After a recovery of 10 minutes (37 degrees 5% CO2), compounds were added in a final concentration of 10 μM (dissolved in DMSO, final concentration 0.1%). To control myocytes, 0.1% DMSO was added. After six hours the cells were lysed in RIPA buffer and used for Western blotting as described previously.^3, 10 Compounds were also screened for their ability to upregulate HSP gene expression. Hereto, HL-1 cardiomyocytes were first subjected to a mild heat shock which activates the Heat Shock Factor. After the mild heat shock, compound (10 μM) was added to the medium of HL-1 cardiomyocytes for 6 hours, followed by determination of HSP70, HSP25, HSP90 and HSP40 which are targets of the heat shock factor 1 (HSF1) transcription factor. In addition, we determined mRNA levels of the gene encoding the glucose-responsive protein 78 (Grp78) which is HSF1-independent.

HSP70 [2] = assay: HSP70 protein boosting in HL-1 cardiomyocytes after mild heat shock (Western blot); format: cell-based, mouse; settings: for induction of mammalian HSP70 protein expression: HL-1, mild heat shock, 10 μM, 6 hours; for HSP boosting HL-1 cardiomyocytes Protein HSP70: mild heat shock 44°C 10 min, then compound 10 μM for 6 hours, Western blot
Description: HL-1 atrial myocytes, a cell line derived from adult mouse atria were obtained from Dr. William Claycomb (Louisiana State University, New Orleans, La., USA). The myocytes were maintained in Complete Claycomb Medium (JRH, UK) supplemented with 100 μM norepinephrine stock (consisting of 10 mM norepinephrine (Sigma, The Netherlands) dissolved in 0.3 mM L-ascorbic acid (Sigma)), 4 mM L-glutamine (Gibco, The Netherlands) and 10% FBS (Sigma). The myocytes were cultured in flasks coated with 0.02% gelatin (Sigma), in a 5% CO2 atmosphere at 37° C.
HL-1 cardiomyocytes were subjected to a mild heat shock of 44° C. for 10 minutes. After a recovery of 10 minutes (37 degrees 5% CO2), compounds were added in a final concentration of 10 μM (dissolved in DMSO, final concentration 0.1%). To control myocytes, 0.1% DMSO was added. After six hours the cells were lysed in RIPA buffer and used for Western blotting as described previously.^3, 10
(§2) Western-blot analysis was performed as described previously^3, 10. Equal amount of protein in SDS-PAGE sample buffer was sonicated before separation on 10% PAA-SDS gels. After transfer to nitrocellulose membranes (Stratagene, The Netherlands), membranes were incubated with primary antibodies against HSP25 (Stressgen, The Netherlands, SPA-801, 1:1000), HSP27 (Stressgen, SPA-800, 1:1000), HSP70 (Stressgen, SPA-810, 1:1000), GAPDH (Affinity Reagents, The Netherlands) or PARP (Santa Cruz, The Netherlands, sc-7150, 1:500). Horseradish peroxidase-conjugated anti-mouse or anti-rabbit (Santa-Cruz Biotechnology, The Netherlands) was used as secondary antibody. Signals were detected by the ECL-detection method (Amersham, The Netherlands) and quantified by densitometry using GeneTools software from Syngene (The Netherlands).
Compounds were also screened for HSP70 boosting effects. Hereto, HL-1 cardiomyocytes were first subjected to a mild heat shock which activates the Heat Shock Factor. After the mild heat shock, compound (10 μM) was added to the medium of HL-1 cardiomyocytes for 6 hours, followed by determination of the HSP70 amount.

HSP40 = HSP40 mRNA (qPCR) in HL-1 cardiomyocytes after mild heat shock; format: cell-based, mouse; settings: then compound 10 μM for 6 hours
Description: as §1

HSP70 [3] = assay: HSP70 Western blot in MCF-7 cells; format: cell-based, human; set-up: key: + = P < 0.05; ++ = P < 0.01; +++ = P < 0.001; settings: MCF-7 lysate, 16-20 hours
Description: (§3) MCF-7 breast cancer cells were cultured in DMEM supplemented with 10% FCS. Test compounds were added to the medium in a final concentration of […] for 16-20 hours. Ratio death and living cells was determined by using trypan blue staining of death cells. The cell pellets were lysed in RIPA buffer and used for Western blot analysis.
as §2

[4] = test system: MCF-7 breast cancer cells; assay: MCF-7 cell death, ratio death/living cells (trypan blue); format: cell-based, human; set-up: key to Cell Death MCF-7 cancer cells Death/living 100 μM: 0 = no dead cells; + = P < 0.05; ++ = P < 0.01; +++ = P < 0.001; settings: 100 μM; 16-20 hours; trypan blue
Description: MCF-7 breast cancer cells were cultured in DMEM supplemented with 10% FCS. […] Ratio death and living cells was determined by using trypan blue staining of death cells. The cell pellets were lysed in RIPA buffer and used for Western blot analysis.
Since we observed that some compounds aggravate tachypacing-induced contractile dysfunction, we next investigated if these compounds can induce programmed cell death in a human breast cancer cell-line MCF-7. […] In total 28 compounds were tested for cell death. […] GGA was used as a control as well as non-treated MCF-7 cells. […] The findings indicate that GGA-like compounds which aggravate heart failure can induce programmed cell death in MCF-7 breast cancer cell-line.

[5] = test system: HSP70, HSP25, HSP90 and HSP40; assay: Upregulation of HSP gene expression (HSF1 targets) in HL-1 cardiomyocytes; format: cell-based, mouse; settings: HL-1, mild heat shock, 10 μM, 6 hours
Description: as §1

HSP27 = HSP27 Western blot in MCF-7 cells; format: cell-based, human; set-up: key: + = P < 0.05; ++ = P < 0.01; +++ = P < 0.001; settings: MCF-7 lysate, 16-20 hours
Description: as §3, §2

HSP25 = HSP25 mRNA (qPCR) in HL-1 cardiomyocytes after mild heat shock; format: cell-based, mouse; set-up: key: 0 = no induction HSP levels; + = 2-10-fold induction; ++ = 10-30-fold induction; +++ = > 30-fold induction; settings: then compound 10 μM for 6 hours
Description: as §1

HSP70 [6] = assay: HSP70 mRNA (qPCR) in HL-1 cardiomyocytes after mild heat shock; format: cell-based, mouse; settings: then compound 10 μM for 6 hours
Description: as §1

HSP90 = HSP90 mRNA (qPCR) in HL-1 cardiomyocytes after mild heat shock; format: cell-based, mouse; settings: then compound 10 μM for 6 hours
Description: as §1

PARP = PARP cleavage in MCF-7 cells (Western blot); format: cell-based, human; set-up: key to Cell Death MCF-7 cancer cells PARP: 0 = no dead cells; + = P < 0.05; ++ = P < 0.01; +++ = P < 0.001; settings: MCF-7 lysate, Western blot, 16-20 hours
Description: as §3, §2
Since we observed that some compounds aggravate tachypacing-induced contractile dysfunction, we next investigated if these compounds can induce programmed cell death in a human breast cancer cell-line MCF-7. Hereto, MCF-7 cells were incubated for 16 hours with 10 μM of a test compound after which the number of death and living cells was determined. In total 28 compounds were tested for cell death. […] GGA was used as a control as well as non-treated MCF-7 cells. […] The findings indicate that GGA-like compounds which aggravate heart failure can induce programmed cell death in MCF-7 breast cancer cell-line.

HSP70 [7] = assay: Hsp70 induction in murine proximal tubule (MPT) cells (Western blot); format: cell-based; settings: 40 μM, 5 hours, outperformed positive control GGA
Description: Murine proximal tubule (MPT) cells were isolated and cultured as described previously (Borkan et al. Heat stress ameliorates ATP depletion-induced sublethal injury in mouse proximal tubule cells. Am. J. Physiol. 1997; F347-55).
The MPT cells were exposed to 40 μM of compound for 5 hours, after which the cells were harvested in RIPA buffer followed by Western blotting.
For Western-blot analysis, equal amount of protein in SDS-PAGE sample buffer was separated on 10% PAA-SDS gels. After transfer to nitrocellulose membranes (Stratagene, USA), membranes were incubated with primary antibodies against HSP70 (Enzo C92F3A/StressGen SP810) or beta-actin (Sigma A541). Horseradish peroxidase-conjugated anti-mouse or anti-sheep (Jackson ImmunoRes) was used as secondary antibody. Signals were detected by the ECL-detection method (Amersham).

Row | SMILES | upregulation of Grp78 mRNA [1] | HSP boosting HL-1 cardiomyocytes mRNA (qPCR) Grp78 Not HSF1 [1] | induction of mammalian HSP70 protein expression (HSP70 [2]) | HSP boosting HL-1 cardiomyocytes mRNA (qPCR) HSP 40 (HSP40) | Cell Death MCF-7 cancer cells HSP 70 (HSP70 [3]) | Cell Death MCF-7 cancer cells Death/living 100 μM [4] | induction of HSP gene expression [5] | Cell Death MCF-7 cancer cells HSP 27 (HSP27) | HSP boosting HL-1 cardiomyocytes mRNA (qPCR) HSP 25 (HSP25) | HSP boosting HL-1 cardiomyocytes mRNA (qPCR) HSP 70 (HSP70 [6]) | HSP boosting HL-1 cardiomyocytes mRNA (qPCR) HSP 90 (HSP90) | Cell Death MCF-7 cancer cells PARP (PARP) | HSP boosting HL-1 cardiomyocytes Protein HSP70 (HSP70 [2]) | induction of HSP70 expression in renal (MPT) cells (HSP70 [7])
1 | CC(=O)CC(=O)CC/C=C(\C)CCC=C(C)C [Compound 28, (E)-8,12-Dimethyltrideca-7,11-Diene-2,4-Dione] | no upregulation | 0 | potent inducers | + (+ = 2-10-fold induction) | 0 | 0 | strong inducers | ++ (++ = P < 0.01) | + (+ = 2-10-fold induction) | + (+ = 2-10-fold induction) | + (+ = 2-10-fold induction) | 0 |  | 
2 | CC(C)=CCC/C(C)=C/CNC(=O)CCC(=O)O [Compound 46] | no upregulation | 0 | potent inducers | + (+ = 2-10-fold induction) |  |  | strong inducers |  | ++ (++ = 10-30-fold induction) | + (+ = 2-10-fold induction) | ++ (++ = 10-30-fold induction) |  | ++ (++ = 10-30-fold induction) | strong inducers
3 | CC(C)=CCC/C(C)=C/CNS(C)(=O)=O [Compound 51, (E)-N-(3,7-Dimethylocta-2,6-dien-1-yl)methanesulfonamide] | no upregulation | 0 | potent inducers | + (+ = 2-10-fold induction) | + (+ = P < 0.05) | 0 | strong inducers | ++ (++ = P < 0.01) | + (+ = 2-10-fold induction) | + (+ = 2-10-fold induction) | + (+ = 2-10-fold induction) | 0 |  | strong inducers
4 | CC(C)=CCC/C(C)=C/CNS(=O)(=O)C(F)(F)F [Compound 52] | no upregulation | 0 | potent inducers | + (+ = 2-10-fold induction) |  |  | strong inducers |  | + (+ = 2-10-fold induction) | + (+ = 2-10-fold induction) | + (+ = 2-10-fold induction) |  |  | strong inducers
5 | CCOC(=O)C(C/C=C(\C)CCC=C(C)C)C(=O)c1ccccc1O (centres unmarked) [Compound 61, (E)-Ethyl 2-(2-hydroxybenzoyl)-5,9-dimethyldeca-4,8-dienoate] | no upregulation | 0 | potent inducers | + (+ = 2-10-fold induction) | 0 | 0 | strong inducers | 0 | + (+ = 2-10-fold induction) | + (+ = 2-10-fold induction) | + (+ = 2-10-fold induction) | 0 | ++ (++ = 10-30-fold induction) | strong inducers
6 | CC(C)=CCC/C(C)=C/CCc1cc(O)n[nH]1 [Compound 62, (E)-5-(4,8-dimethylnona-3,7-dien-1-yl)-1H-pyrazol-3-ol] | no upregulation | 0 | potent inducers | + (+ = 2-10-fold induction) |  |  | strong inducers |  | 0 | + (+ = 2-10-fold induction) | + (+ = 2-10-fold induction) |  | ++ (++ = 10-30-fold induction) | strong inducers
